The test system of one data set is Gumbus. The experiment in a line: Inhibitor effect on inducer-mediated apoptosis, Gumbus cells (Example 6). Type of data set: cell-based. The protocol:
(§1) The effect of a singlet oxygen scavenger, a NO synthase inhibitor and a HOCl scavenger on either the destruction of the catalase or the HOCl pathway was determined by the following experiment. 12500 SISO cells in 100 μl media in 96 tissue wells were treated with taxol (20 μg/ml) in the presence of TGF-β (20 ng/ml). In addition, the singlet oxygen scavenger, the NO synthase inhibitor or the HOCl scavenger was added at different points of time in the experiments.
(§2) Further experiments have been carried out using different types of cells and different apoptosis inhibitors. The experimental setup was analogue to the examples 5a-5c and the late addition of the inhibitor (histidine, L-NAME, 3-Br-7-Nitroindazole or taurine) was performed 1 hour after beginning of the experiment. The concentrations of taxol, histidine, L-NAME and taurine were the same as in the experiments 5a-5c. 3-Br-7-Nitroindazole was added at a concentration of 10 μm. The apoptosis inducing compounds were added at increasing concentrations (0-5 mM arginine, 0-20 μg/ml taxol, 0-20 μg/ml artemisine, 0-20 μg/ml xanthohumol, 0-20 μg/ml itraconazole, 0-10 μg/ml miconazole, 0-20 μg/ml antibody against Apo/FAS receptor). In each of the experiments, the effect of the inhibitors on the singlet oxygen mediated catalase destruction and/or the subsequent ROS signaling could be observed. […] Addition of histidine at the beginning of the experiment caused inhibition in all experiments and for all cell lines shown. […] The experiments using neuroblastoma cells only display apoptosis mediated by the NO pathway as these cells only release small amounts of peroxidase. Therefore, addition of the nNOS-specific inhibitor 3-Br-7NI caused inhibition of apoptosis, irrespective of the time of addition. […] Addition of taurine in the presence of higher concentrations of inducers inhibited apoptosis irrespective of the time of addition (zero versus one hour), as HOCl is only involved in intercellular signaling, but not in catalase destruction.

In the next data set the test system is MKN-45. Kind of data set: Inhibitor effect on inducer-mediated apoptosis, MKN-45 cells (Example 6). Type of data set: cell-based. As for the experimental part: as §1, §2
In data set [1] the test system is SISO cells (human cervix carcinoma). Kind of data set: Apoptosis induction by taxol in SISO cells, 48 well (FIGS. 6-8, Example 4). Type of data set: cell-based. To be noted: for synergistic effect with taxol on apoptosis: 10 mM arginine, 200 μM Nor-NOHA or both, suboptimal taxol, 20 ng/ml TGF. As for the experimental part: FIG. 6 discloses experimental data obtained with 25000 SISO cells (human cervix carcinoma) cultured in 48 well tissue culture clusters in the presence of the indicated concentrations of the established chemotherapeutic compound taxol. The assays contained 2 mM Histidine or not.
FIG. 7 discloses experimental data obtained with 25000 SISO cells (human cervix carcinoma) cultured in 48 well tissue culture clusters either in the absence of any inducer (“no addition”) or in the presence of 10 μg/ml taxol (“TAX”) without further additions or with the addition of 100 μM of the NADPH oxidase inhibitor AEBSF, 100 U/ml of the superoxide anion scavenger SOD (Manganese-containing SOD from E. coli), 100 U/ml catalase, 150 μM of the peroxidase inhibitor ABH (aminobenzoylhydrazide), 50 mM of the HOCl scavenger taurine, 1 mM of the hydroxyl radical scavenger mannitol, 2.4 mM of the NO synthase inhibitor L-NAME, and 25 μM of the inhibitors for caspase 3, −9 and 8.
FIG. 8 discloses experimental data obtained with 25 000 SISO cells in 48 well tissue culture clusters in the presence of 20 ng/ml TGF and the indicated concentrations of taxol. Where indicated, taxol containing assays received 10 mM arginine (10 ARG), 200 μM Nor-NOHA or a combination of both.
Human SISO cells are used in a 48-well plate (Costar) in 200 μl media with a cell concentration of 25,000. The media comprises 20 ng/ml TGF-beta and furthermore Taxol subjected for testing in a concentration ranging from 1.25-20 ng/ml. For comparison, control experiments are performed without Taxol which is tested for apoptosis induction.
Step 2 is carried out with the same conditions as specified for step 1, whereas all cells are contacted with taxol. In addition, histidine (2 mM) is added to the cells, whereas also experiments without histidine are performed as control experiments.
In a further experiment using the conditions of step 1, human tumor cells (SISO) are contacted with taxol (10 μg/ml) and 100 μM of the NADPH oxidase inhibitor AEBSF, 100 U/ml of the superoxide anion scavenger SOD (Manganese-containing SOD from E. coli), 100 U/ml catalase, 150 μM of the peroxidase inhibitor ABH (aminobenzoylhydrazide), 50 mM of the HOCl scavenger taurine, 1 mM of the hydroxyl radical scavenger mannitol or 2.4 mM of the NO synthase inhibitor L-NAME.

The subject of the next data set is SKNMC. Kind of data set: Inhibitor effect on inducer-mediated apoptosis, SKNMC cells (Example 6). Type of data set: cell-based, human. As for the experimental part:
as §1
(§3) Further experiments have been carried out using different types of cells and different apoptosis inhibitors. The experimental setup was analogue to the examples 5a-5c and the late addition of the inhibitor (histidine, L-NAME, 3-Br-7-Nitroindazole or taurine) was performed 1 hour after beginning of the experiment. The concentrations of taxol, histidine, L-NAME and taurine were the same as in the experiments 5a-5c. 3-Br-7-Nitroindazole was added at a concentration of 10 μm. The apoptosis inducing compounds were added at increasing concentrations (0-5 mM arginine, 0-20 μg/ml taxol, 0-20 μg/ml artemisine, 0-20 μg/ml xanthohumol, 0-20 μg/ml itraconazole, 0-10 μg/ml miconazole, 0-20 μg/ml antibody against Apo/FAS receptor). In each of the experiments, the effect of the inhibitors on the singlet oxygen mediated catalase destruction and/or the subsequent ROS signaling could be observed. […]

Another data set concerns SHEP. Kind of data set: Inhibitor effect on inducer-mediated apoptosis, SHEP cells (Example 6). Type of data set: cell-based, human. The protocol:
as §1, §3

For data set [2], the system named is SISO cells (human cervix carcinoma). Kind of data set: Apoptosis induction by taxol in SISO cells, 48 well (FIGS. 6-8, Example 4). Type of data set: cell-based.
Another data set has as its system SISO cells. The experiment in a line: Timed inhibitor addition on inducer-mediated apoptosis in SISO cells, 96 well (Examples 5, 6). Type of data set: cell-based, human. As for the experimental part: FIG. 9 discloses experimental data obtained with 12500 SISO cells in 96 well tissue culture clusters in the presence of 20 ng/ml TGF and the indicated concentrations of taxol. Furthermore, histidine was added at different time points in the experiment.
FIG. 11 refers to a similar experiment as described with respect to FIG. 8 or 9, whereas histidine/L-NAME was substituted by taurine (50 mM, scavenger of HOCl).
as §1
The concentrations of taxol, histidine, L-NAME and taurine were the same as in the experiments 5a-5c. 3-Br-7-Nitroindazole was added at a concentration of 10 μm. The apoptosis inducing compounds were added at increasing concentrations (0-5 mM arginine, 0-20 μg/ml taxol, 0-20 μg/ml artemisine, 0-20 μg/ml xanthohumol, 0-20 μg/ml itraconazole, 0-10 μg/ml miconazole, 0-20 μg/ml antibody against Apo/FAS receptor).

For data set [3], the system named is normal diploid fibroblasts. Kind of data set: Toxicity test on normal diploid fibroblasts (step 3). Type of data set: cell-based. The note with it: conditions of step 1, two days; data not shown. As for the experimental part: The method for identifying suitable compounds can additionally comprise a third step. The third step comprises contacting the identified compounds from step 2 with normal diploid fibroblasts in order to determine whether these compounds induce apoptosis or other toxic reactions and are therefore not suitable for a medical use.
The experimental conditions are the same as for step 1, whereas the cells used for step 3 are normal diploid fibroblasts. Control experiments are carried out without the test compound, and the cells are incubated for two days.

[4] abbreviates: SISO, inducer at increasing concentrations.

Take `Clc1ccc(COC(Cn2ccnc2)c2ccc(Cl)cc2Cl)c(Cl)c1` (centres unmarked) [Miconazole]: in the data set on Gumbus, the “apoptosis inhibitory effect of Histidine” value is recorded as “+”, the “apoptosis inhibitory effect of L-NAME” value was “+” and the “apoptosis inhibitory effect of Taurine” value is listed as “+”.
As to `CCC(C)n1ncn(-c2ccc(N3CCN(c4ccc(OCC5COC(Cn6cncn6)(c6ccc(Cl)cc6Cl)O5)cc4)CC3)cc2)c1=O` (centres unmarked) [Itraconazole], in the data set with Gumbus, the “apoptosis inhibitory effect of Histidine” value was “+”, the “apoptosis inhibitory effect of L-NAME” value is listed as “+” and the “apoptosis inhibitory effect of Taurine” value is given as “+”.
As to `COc1cc(O)c(CC=C(C)C)c(O)c1C(=O)/C=C/c1ccc(O)cc1` [Xanthohumol], in the data set on Gumbus, the “apoptosis inhibitory effect of Histidine” value is given as “+”, the “apoptosis inhibitory effect of L-NAME” value was “+” and the “apoptosis inhibitory effect of Taurine” value is “+”.
In the case of `C[C@@H]1CC[C@H]2[C@@H](C)C(=O)O[C@@H]3O[C@@]4(C)CC[C@@H]1[C@]32OO4` [Artemisinine], in the data set with MKN-45, the “apoptosis inhibitory effect of Histidine” value was “+”, the “apoptosis inhibitory effect of L-NAME” value is listed as “+” and the “apoptosis inhibitory effect of Taurine” value is “+”.
On to `N=C(NO)NCC[C@H](N)C(=O)O` [Nor-NOHA, N^omega-hydroxy-nor-L-arginine], for which the “synergistic effect with taxol on apoptosis” value in data set [1] is “synergistic effect”.
In the case of `N=C(N)NCCC[C@H](N)C(=O)O` [Arginine], the “apoptosis inhibitory effect of Histidine” value in the data set with SKNMC is reported as “+”. The “apoptosis inhibitory effect of 3-Br-7-NI” value in the data set on SKNMC (3-Br-7-Nitroindazole 10 μm) is listed as “+”. For the same compound, in the data set on Gumbus, the “apoptosis inhibitory effect of Histidine” value is given as “+”, the “apoptosis inhibitory effect of L-NAME” value is listed as “+” and the “apoptosis inhibitory effect of Taurine” value is given as “+”. The “synergistic effect with taxol on apoptosis” value in data set [1] is recorded as “synergistic effect”.
For `CC(=O)O[C@H]1C(=O)[C@@]2(C)[C@H]([C@H](OC(=O)c3ccccc3)[C@]3(O)C[C@H](OC(=O)[C@H](O)[C@@H](NC(=O)c4ccccc4)c4ccccc4)C(C)=C1C3(C)C)[C@]1(OC(C)=O)CO[C@@H]1C[C@@H]2O` [Taxol], the “apoptosis inhibitory effect of Histidine” value in the data set with SHEP is listed as “+”. Further, in the data set with SHEP (3-Br-7-Nitroindazole 10 μm), the “apoptosis inhibitory effect of 3-Br-7-NI” value is “+”. The “signaling pathway used at low taxol concentration” value in data set [2] (2 μg/ml taxol, data not shown) is on record as “the NO pathway became more prominent”. Also, the “apoptosis induction in SISO cells with siRNA knockdown of superoxide anion generation” value in data set [2] (siRNA-based genetic knockdown) is reported as “did not lead to taxol-mediated apoptosis induction”. For the same compound, in the data set on Gumbus, the “apoptosis inhibitory effect of Histidine” value is recorded as “+”, the “apoptosis inhibitory effect of L-NAME” value is on record as “+” and the “apoptosis inhibitory effect of Taurine” value was “+”. Besides, in the data set with SISO cells (2 mM histidine at start), the “effect of histidine added at the beginning on taxol-induced apoptosis” value is on record as “inhibits the tumor apoptosis to a great extend”. The “effect of late addition of L-NAME on taxol-induced apoptosis” value in the data set on SISO cells (2.4 mM L-NAME 5 hours after beginning) is reported as “only shows some inhibition at low taxol concentrations”. The “effect of early addition of L-NAME on taxol-induced apoptosis” value with SISO cells (2.4 mM L-NAME at start) was “inhibits tumor apoptosis”. For the same compound, the “effect of taurine on taxol-induced apoptosis” value with SISO cells (50 mM taurine at start or after 5 hours) was “only inhibits tumor apoptosis at high taxol concentrations”. In the data set on SISO cells (setting [4]), the “apoptosis inhibitory effect of Histidine” value is “+”, the “apoptosis inhibitory effect of L-NAME” value was “+” and the “apoptosis inhibitory effect of Taurine” value is listed as “+”. Also, in the data set on SISO cells (histidine 5 hours after beginning), the “effect of late addition of histidine on taxol-induced apoptosis” value is given as “only shows a small effect of apoptosis inhibition”. In addition, the “effect of histidine on taxol-induced apoptosis” value in data set [1] (2 mM histidine) is recorded as “inhibited by histidine at all concentrations”. Moreover, the apoptosis induction entry in data set [1] (Taxol 1.25-20 ng/ml, 20 ng/ml TGF-beta) is reported as “apoptosis already occurs after 12.5 hours at all concentrations”. For the same compound, in data set [1] (taxol 10 μg/ml, 25 μM inhibitors for caspase 3, -9 and 8), the “caspase dependence of apoptosis induction” value was “mediated by caspases 9 and 3 (mitochondrial pathway) and is independent of the death receptor specific caspase 8”. For the same compound, the “effect of inhibitors of superoxide anion generation (AEBSF, SOD) on taxol-mediated apoptosis” value in data set [1] (taxol 10 μg/ml, 100 μM AEBSF, 100 U/ml SOD) is on record as “inhibited”. In data set [1] (taxol 10 μg/ml, 2.4 mM L-NAME), the “effect of inhibitor of the NO pathway (L-NAME) on taxol-mediated apoptosis” value is recorded as “not by the inhibitor of the NO pathway”. The “effect of inhibitors of the HOCl pathway (catalase, ABH, taurine, mannitol) on taxol-mediated apoptosis” value in data set [1] (taxol 10 μg/ml, 100 U/ml catalase, 150 μM ABH, 50 mM taurine, 1 mM mannitol) is listed as “inhibited”. Further, the “apoptosis induction in diploid fibroblasts” value in data set [3] is given as “did not induce significant apoptosis”.
